Measured values published in publication PMC12525168, “Targeting carA Using Optimized Antisense Peptide Nucleic Acid–Cell-Penetrating Peptide Conjugates in Acinetobacter baumannii: A Novel Antibacterial Approach” (International Journal of Molecular Sciences, 2025).

Key:
A. baumannii ATCC 17978 [1] = assay: MIC by broth microdilution (CLSI); type: cell-based, Acinetobacter baumannii; conditions: CAMHB with TES buffer, 37 °C, 18–20 h, at least two independent experiments in duplicate
Source text: CPP–PNA conjugates were synthesized by HLB […] Co., LTD. The binding sites within A. baumannii ATCC 17978 were predicted and analyzed using Geneious Prime (version 1 February 2025), enabling precise identification of target regions for subsequent antisense PNA design. Specifically, α-PNA modifications introduced arginine, while γ-PNA modifications incorporated guanidino-lysine. The diverse CPP–PNA and α- and γ-modified PNA oligomers were generated via solid-phase peptide synthesis using benzothiazole sulfonyl and standard fluorenylmethyloxycarbonyl chemistry procedures on an automatic synthesizer (HLB-[…]). The synthesized PNA oligomers were cleaved from the solid support resin using a mixed solution containing trifluoroacetic acid. The PNA mixture separated from the solid support was purified using reverse-phase high-performance liquid chromatography, and the purity and molecular weight were determined and confirmed using high-performance liquid chromatography and matrix-assisted laser desorption/ionization time-of-flight mass spectrometry (Figures S1 and S2). The MIC of each CPP–PNA conjugate was determined using the broth microdilution method in accordance with the Clinical and Laboratory Standards Institute guidelines. A. baumannii ATCC 17978 was used as the test strain. The CPP–PNA conjugates were tested at concentrations of […], 3.125, 6.25, 12.5, 25, and 50 µM in 100 µL of cation-adjusted Mueller–Hinton broth with N-Tris (hydroxymethyl) methyl-2-aminoethanesulfonic acid buffer (CAMHB; T3462; Thermo Fisher Scientific, Waltham, MA, USA). The microdilution plates were incubated at 37 °C for 18–20 h. A minimum of two independent experiments, each performed in duplicate, were conducted to ensure reproducibility.

A. baumannii ATCC 17978 [2] = assay: Bactericidal test: colony count after treatment with 50 µM CPP–PNA; type: cell-based, Acinetobacter baumannii; conditions: for Bactericidal activity in MBC assay (in words) / Average CFU: 50 µM CPP–PNA; for Average CFU: mean of two plates, plated 24 h; for Average CFU / MBC (CFU) in 50 µM CPP–PNA: 4 h at 37 °C; for MBC (CFU) in 50 µM CPP–PNA: 1 × 10^7 CFU/mL inoculum, 50 µL spread on Muller–Hinton agar, 24 h at 37 °C
Source text: Artificially synthesized CPP–PNA (carA, […]) conjugates were used to silence carA. Briefly, carA-specific oligonucleotides were identified from the genomic sequence of A. baumannii ATCC 17978 (CP049363.1). The CPP–PNA conjugates, namely KFFK (FFK)2–PNA, KKFK (FFK)2–PNA, and KKKK (FFK)2–PNA, were synthesized by HLB […] Co., LTD. (Daejeon, Republic of Korea). These conjugates were engineered to specifically bind to the translation initiation region of carA, which includes the TTG start codon and the Shine-Dalgarno sequence (TTTGGT) crucial to ribosomal interaction.
To prepare bacterial suspensions, cultures of A. baumannii ATCC 17978 were grown until the OD600 value reached 0.8. The CPP–PNA conjugates were prepared to achieve concentrations of 50 and 0 µM in a total volume of 100 µL per well in 96-well plates. Subsequently, 10 µL of the adjusted bacterial suspension was inoculated into each well (1 × 10^7 CFU/mL). The plates were then incubated at 37 °C for 4 h. Subsequently, 50 µL of each CPP–PNA conjugate-treated bacterial suspension was spread on Muller–Hinton agar plates, with each condition distributed across two plates. The plates were subsequently incubated at 37 °C for 24 h to enable bacterial growth and colony formation.

Substance | MIC (A. baumannii ATCC 17978 [1]) [µM] | Bactericidal activity in MBC assay (in words) (A. baumannii ATCC 17978 [2]) | Average CFU (A. baumannii ATCC 17978 [2]) | MBC (CFU) in 50 µM CPP–PNA (A. baumannii ATCC 17978 [2]; plate 1 of two) | MBC (CFU) in 50 µM CPP–PNA (A. baumannii ATCC 17978 [2]; plate 2 of two)
Control 3 (acpP): KFFK(FFK)2 conjugated to PNA TGATTTGCCAC targeting acpP [reference compound] | 25 | – | – | – | –
Control 4 (ftsZ): KFFK(FFK)2 conjugated to PNA GAGGCCATGAC targeting ftsZ [reference compound] | 50 | – | – | – | –
Control 5 (rne): KFFK(FFK)2 conjugated to PNA ACGTTTCATGG targeting rne [reference compound] | 50 | – | – | – | –
KFFK(FFK)2-CGGGGGTGCTCAA: KFFK(FFK)2 conjugated to 13-mer PNA targeting carA start codon (all peptide nucleic acid (PNA); KFFK(FFK)2 cell-penetrating peptide conjugated to the PNA, attachment site not given here) | >50 | – | – | – | –
KFFK(FFK)2-TCAAA*CCA*AAGCT: KFFK(FFK)2 conjugated to γ-modified 13-mer PNA targeting carA RBS (TCAAACCAAAGCT; KFFK(FFK)2 peptide conjugate, γ-modified PNA, chemistry not fully specified) | 25 | – | – | – | –
KFFK(FFK)2-TCAAACCAAAGCT: KFFK(FFK)2 cell-penetrating peptide conjugated to unmodified 13-mer antisense PNA TCAAACCAAAGCT targeting carA RBS (all peptide nucleic acid (PNA); KFFK(FFK)2 peptide conjugated) | 25 | No A. baumannii colonies were detected | 0 CFU | 0 CFU | 0 CFU
KFFK(FFK)2-TTACTGTTTAGAT: KFFK(FFK)2 conjugated to 13-mer PNA targeting carA stop codon (all peptide nucleic acid (PNA); KFFK(FFK)2 cell-penetrating peptide conjugated to the PNA, attachment site not given here) | 50 | – | – | – | –
KKFK(FFK)2-TCAAACCAAAGCT: KKFK(FFK)2 cell-penetrating peptide conjugated to 13-mer antisense PNA TCAAACCAAAGCT targeting carA (all peptide nucleic acid (PNA); KKFK(FFK)2 peptide conjugated) | – | – | 10.5 CFU | 7 CFU | 14 CFU
KKKK(FFK)2-TCAAACCAAAGCT: KKKK(FFK)2 cell-penetrating peptide conjugated to 13-mer antisense PNA TCAAACCAAAGCT targeting carA (all peptide nucleic acid (PNA); KKKK(FFK)2 peptide conjugated) | – | no bactericidal activity | TNTC | TNTC | TNTC
